Results published in article PMC12211128, “Safety, tolerability, pharmacokinetic and pharmacodynamic effects of the muscarinic M1 positive allosteric modulator VU0467319 for Alzheimer’s disease: a single ascending-dose study in healthy participants” (Alzheimer's Research & Therapy, 2025).
Entries after “also recorded” stand apart in the source; their conditions may differ.

Legend:
healthy participants [1] = test: Clinical laboratory parameters; assay type: in vivo, human; settings: food effect study, 120 mg; 72 h post-dose, closer to normal by 144 h
Experimental: Safety and tolerability were assessed throughout the study via treatment emergent adverse event (TEAE) monitoring, vital signs (blood pressure, pulse rate, respiration rate, oral temperature), physical examinations, 12-lead ECGs, and clinical laboratory parameters including complete blood count (CBC), coagulation, hematology, clinical chemistry assessments, and urinalysis. Safety laboratory tests were drawn at pre-dose and at 5, 24, 36 and 144-hours post-dose for 60–400 mg Cohorts; and at 24, 48, 72 and 144-hours post-dose for the 600 mg and Food Effect Cohort. ECG assessments were conducted at pre-dose and at 1, 2, 3, 5, 9, 24, 36 and 144-hours post-dose for 60–400 mg Cohorts; and at 2, 3, 5, 9, 24, 36, 72 and 144-hours post-dose for the 600 mg and Food Effect Cohort. All adverse events (AEs) were assessed by the investigator for severity and relationship to study medication or study procedures.

healthy participants [2] = test: Conner's Continuous Performance Task (CPT); assay type: in vivo, human; settings: for CPT Commission Errors / CPT Hit Response Time / CPT Omission Errors / CPT Perseverations: mean (SD)
Experimental: (§1) The Conner’s Continuous Performance Task (CPT; [32]) tested sustained attention to a target. Participants saw a string of letters appearing one at a time on a computer screen. Participants were asked to press the spacebar whenever the target stimulus (any letter except for the X) appeared. Participants were asked to withhold responding when a X was presented, which is the non-target stimulus. A set of 15 outcome measures derived from the task report were recorded as key variables. These measures include Hit RT, Hit Standard Error, Commission, Omission and Perseveration errors, Sensitivity, Response style, and the Hit standard error across different interstimulus intervals.
Cognitive data: In this exploratory analysis, each outcome variable of the cognitive data was examined in a mixed model analysis of variance with one between-subjects factor of VU319 dose (0, 60, 120, 240, 400, 600 mg) and a within-subjects factor of testing session (pre-dose vs. post-dost administration). Post-hoc analysis compared each of the VU319 dose cohorts against the placebo group. Because the participants were healthy adults with normal cognitive function, we considered effects between no reductions in function to small improvement (d = 0.0–0.20) to be a positive result. For the food effect study, only the participants who received VU319 were examined due to the disproportionately small placebo group (n = 2). A within-subjects ANOVA including food condition (fasted/fed) and testing session (pre-dose vs. post-dose administration) was performed on each outcome variable.
as §1, with “(Conners et al., 2000))” for “[32])”

M1 mAChR = settings: cited from earlier work
[3] = Food effect study 120 mg, Fasting, Post-Drug, n = 9
[4] = Food effect study 120 mg, Fasting, Pre-Drug, n = 9
[5] = Food effect study 120 mg, Fed, Post-Drug, n = 9
[6] = Food effect study 120 mg, Fed, Pre-Drug, n = 9

Cn1cc2c(-c3cc(F)c(CN4Cc5ncccc5C4=O)c(F)c3)cccc2n1 [VU319]
ALT and AST levels (healthy participants [1]): moderate increase in ALT and AST levels reported by one participant
CPT Hit RT, 600 mg vs placebo, effect size d (healthy participants [2]; 600 mg, pre-dose to post-dose): 1.48
CPT Hit RT, pre- to post-dose change, mean difference vs placebo (healthy participants [2]; 600 mg, p = 0.012): -28.12
CPT Commission Errors (healthy participants [2]; [3]): 12.6 (6.62)
CPT Hit Response Time (healthy participants [2]; [3]): 387.85 (64.33) ms
CPT Omission Errors (healthy participants [2]; [3]): 4.33 (7.16)
CPT Perseverations (healthy participants [2]; [3]): 2.56 (6.93)
CPT Commission Errors (healthy participants [2]; [4]): 11.6 (5.68)
CPT Hit Response Time (healthy participants [2]; [4]): 395.78 (51.66) ms
CPT Omission Errors (healthy participants [2]; [4]): 4.56 (10.4)
CPT Perseverations (healthy participants [2]; [4]): 3.89 (11.7)
CPT Commission Errors (healthy participants [2]; [5]): 12.3 (6.2)
CPT Hit Response Time (healthy participants [2]; [5]): 381.1 (71.8) ms
CPT Omission Errors (healthy participants [2]; [5]): 2 (4.24)
CPT Perseverations (healthy participants [2]; [5]): 1.78 (2.44)
CPT Commission Errors (healthy participants [2]; [6]): 11.1 (5.58)
CPT Hit Response Time (healthy participants [2]; [6]): 381.6 (59.56) ms
CPT Omission Errors (healthy participants [2]; [6]): 1.22 (1.48)
CPT Perseverations (healthy participants [2]; [6]): 0.44 (1.01)
CPT Commission Errors (healthy participants [2]; SAD study, 60 mg, Post-Drug): 13.33 (4.37)
CPT Hit Response Time (healthy participants [2]; SAD study, 60 mg, Post-Drug): 407.08 (66.44) ms
CPT Omission Errors (healthy participants [2]; SAD study, 60 mg, Post-Drug): 3.33 (4.55)
CPT Perseverations (healthy participants [2]; SAD study, 60 mg, Post-Drug): 0 (0)
CPT Commission Errors (healthy participants [2]; SAD study, 60 mg, Pre-Drug): 12.83 (4.07)
CPT Hit Response Time (healthy participants [2]; SAD study, 60 mg, Pre-Drug): 393.27 (46.65) ms
CPT Omission Errors (healthy participants [2]; SAD study, 60 mg, Pre-Drug): 1 (1.27)
CPT Perseverations (healthy participants [2]; SAD study, 60 mg, Pre-Drug): 0.33 (0.52)
CPT Commission Errors (healthy participants [2]; SAD study, 120 mg, Post-Drug): 15.33 (5.92)
CPT Hit Response Time (healthy participants [2]; SAD study, 120 mg, Post-Drug): 356.2 (29.58) ms
CPT Omission Errors (healthy participants [2]; SAD study, 120 mg, Post-Drug): 4.67 (5.28)
CPT Perseverations (healthy participants [2]; SAD study, 120 mg, Post-Drug): 1.5 (1.98)
CPT Commission Errors (healthy participants [2]; SAD study, 120 mg, Pre-Drug): 15.5 (6.66)
CPT Hit Response Time (healthy participants [2]; SAD study, 120 mg, Pre-Drug): 361.23 (27.25) ms
CPT Omission Errors (healthy participants [2]; SAD study, 120 mg, Pre-Drug): 0.83 (0.75)
CPT Perseverations (healthy participants [2]; SAD study, 120 mg, Pre-Drug): 0 (0)
CPT Commission Errors (healthy participants [2]; SAD study, 240 mg, Post-Drug): 12 (1.55)
CPT Hit Response Time (healthy participants [2]; SAD study, 240 mg, Post-Drug): 372.94 (64.52) ms
CPT Omission Errors (healthy participants [2]; SAD study, 240 mg, Post-Drug): 2.33 (2.58)
CPT Perseverations (healthy participants [2]; SAD study, 240 mg, Post-Drug): 0.83 (1.6)
CPT Commission Errors (healthy participants [2]; SAD study, 240 mg, Pre-Drug): 11.33 (3.62)
CPT Hit Response Time (healthy participants [2]; SAD study, 240 mg, Pre-Drug): 372.21 (43.06) ms
CPT Omission Errors (healthy participants [2]; SAD study, 240 mg, Pre-Drug): 1 (1.27)
CPT Perseverations (healthy participants [2]; SAD study, 240 mg, Pre-Drug): 0.5 (1.23)
CPT Commission Errors (healthy participants [2]; SAD study, 400 mg, Post-Drug): 9.5 (3.08)
CPT Hit Response Time (healthy participants [2]; SAD study, 400 mg, Post-Drug): 365.85 (33.44) ms
CPT Omission Errors (healthy participants [2]; SAD study, 400 mg, Post-Drug): 1.67 (1.97)
CPT Perseverations (healthy participants [2]; SAD study, 400 mg, Post-Drug): 0.33 (0.82)
CPT Commission Errors (healthy participants [2]; SAD study, 400 mg, Pre-Drug): 10.33 (2.81)
CPT Hit Response Time (healthy participants [2]; SAD study, 400 mg, Pre-Drug): 374.41 (25.8) ms
CPT Omission Errors (healthy participants [2]; SAD study, 400 mg, Pre-Drug): 0.67 (1.2)
CPT Perseverations (healthy participants [2]; SAD study, 400 mg, Pre-Drug): 0.17 (0.41)
CPT Commission Errors (healthy participants [2]; SAD study, 600 mg, Post-Drug): 17 (8.49)
CPT Hit Response Time (healthy participants [2]; SAD study, 600 mg, Post-Drug): 356.18 (45.08) ms
CPT Omission Errors (healthy participants [2]; SAD study, 600 mg, Post-Drug): 1.5 (2.35)
CPT Perseverations (healthy participants [2]; SAD study, 600 mg, Post-Drug): 1.5 (3.21)
CPT Commission Errors (healthy participants [2]; SAD study, 600 mg, Pre-Drug): 13 (5.66)
CPT Hit Response Time (healthy participants [2]; SAD study, 600 mg, Pre-Drug): 387.39 (51.74) ms
CPT Omission Errors (healthy participants [2]; SAD study, 600 mg, Pre-Drug): 1.33 (3.27)
CPT Perseverations (healthy participants [2]; SAD study, 600 mg, Pre-Drug): 0.33 (0.82)
CPT hit response time, dose by time interaction, effect size d (healthy participants [2]; SAD study, p = 0.063, faster following higher doses): 1.19
CPT, effects of food or time (healthy participants [2]; food effect study, 120 mg): no significant effects of food or time
agonist properties at M1 (M1 mAChR): devoid of agonist properties; also recorded: lack of direct orthosteric agonism of M1 receptors
